Where “and” joins values, the source holds several entries; their conditions need not be identical. Identical values can stand only once. Toxic doses and inconclusive results are not listed. How the source made its calls: active means survival T/C of 150% or more; inactive means T/C below 125% in these data.
System: CD2F1 mice, L1210 leukemia ip, survival T/C
Assay: NCI In Vivo Anticancer Drug Screen. Data for tumor model L1210 Leukemia (intraperitoneal) in CD2F1 (CDF1) mice
Details: higher = longer survival
How it was run: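 Read-out first: treated-group measurement over vehicle-control measurement, expressed as a ratio. Animals bore a transplanted tumor line and were dosed with compound or vehicle.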

[1] = endpoint: mean survival time, dose: 100.0 mg/kg/injection, schedule: Q01DX009 (ip), vehicle: saline with Tween-80
[2] = endpoint: mean survival time, dose: 200.0 mg/kg/injection, schedule: Q01DX009 (ip), vehicle: saline with Tween-80
[3] = endpoint: mean survival time, dose: 100.0 mg/kg/injection, schedule: Q04DX003 (ip), vehicle: saline with Tween-80
[4] = endpoint: mean survival time, dose: 200.0 mg/kg/injection, schedule: Q04DX003 (ip), vehicle: saline with Tween-80
[5] = endpoint: mean survival time, dose: 400.0 mg/kg/injection, schedule: Q04DX003 (ip), vehicle: saline with Tween-80

Measured: T/C

CCOC(=O)c1ccc(OC(=O)Nc2cc(OC)ccc2OC)cc1
inactive: [1] 93 % of control | [2] 92 % of control

CC1=NC2=Nc3cc[n+](C4OC(CO)C(O)C4O)c(=O)n3CC2=CN1C (stereo not given)
inactive: endpoint: median survival time, dose: 12.5 mg/kg/injection, schedule: Q01DX005 (ip), vehicle: water 107 % of control | endpoint: median survival time, dose: 25.0 mg/kg/injection, schedule: Q01DX005 (ip), vehicle: water 105 % of control | endpoint: median survival time, dose: 50.0 mg/kg/injection, schedule: Q01DX005 (ip), vehicle: water 105 % of control | endpoint: median survival time, dose: 100.0 mg/kg/injection, schedule: Q01DX005 (ip), vehicle: water 105 % of control and 107 % of control | endpoint: median survival time, dose: 200.0 mg/kg/injection, schedule: Q01DX005 (ip), vehicle: water 103 % of control and 105 % of control | endpoint: median survival time, dose: 400.0 mg/kg/injection, schedule: Q01DX005 (ip), vehicle: water 104 % of control

Cc1cc2c(cc1C)N(C(=O)CN1CCCCC1)CC(=O)N2
inactive: endpoint: mean survival time, dose: 75.0 mg/kg/injection, schedule: Q04DX003 (ip), vehicle: saline 94 % of control | endpoint: mean survival time, dose: 150.0 mg/kg/injection, schedule: Q04DX003 (ip), vehicle: saline 89 % of control

CCCCCCCCC(=O)c1c(OC)oc(/C=N/Nc2ccccc2)cc1=O
inactive: endpoint: mean survival time, dose: 4.7 mg/kg/injection, schedule: Q01DX009 (ip), vehicle: Klucel (hydroxypropylcellulose) (HPC) 103 % of control | endpoint: mean survival time, dose: 9.38 mg/kg/injection, schedule: Q01DX009 (ip), vehicle: Klucel (hydroxypropylcellulose) (HPC) 103 % of control | endpoint: mean survival time, dose: 18.75 mg/kg/injection, schedule: Q01DX009 (ip), vehicle: Klucel (hydroxypropylcellulose) (HPC) 103 % of control | endpoint: mean survival time, dose: 37.5 mg/kg/injection, schedule: Q01DX009 (ip), vehicle: Klucel (hydroxypropylcellulose) (HPC) 98 % of control | endpoint: mean survival time, dose: 75.0 mg/kg/injection, schedule: Q01DX009 (ip), vehicle: Klucel (hydroxypropylcellulose) (HPC) 92 % of control

N=C1N(c2ccc(C(=O)NC(CCC(=O)O)C(=O)O)cc2)CC2CNc3nc(N)[nH]c(=O)c3N12 (stereo not given)
inactive: endpoint: mean survival time, dose: 100.0 mg/kg/injection, schedule: Q01DX001 (ip), vehicle: saline 100 % of control | endpoint: mean survival time, dose: 200.0 mg/kg/injection, schedule: Q01DX001 (ip), vehicle: saline 93 % of control | endpoint: mean survival time, dose: 400.0 mg/kg/injection, schedule: Q01DX001 (ip), vehicle: saline 104 % of control

Cc1ncc([N+](=O)[O-])cc1C(=O)O
inactive: [3] 94 % of control | [4] 96 % of control | [5] 93 % of control

CC(C)OC(=O)Nc1ccccc1F
inactive: endpoint: mean survival time, dose: 100.0 mg/kg/injection, schedule: Q01DX009 (ip), vehicle: other 97 % of control | endpoint: mean survival time, dose: 200.0 mg/kg/injection, schedule: Q01DX009 (ip), vehicle: other 96 % of control | endpoint: mean survival time, dose: 400.0 mg/kg/injection, schedule: Q01DX009 (ip), vehicle: other 94 % of control

CCC1CCCCN1C(=S)N/N=C(\C)c1ccccn1 (stereo not given)
inactive: endpoint: median survival time, dose: 6.25 mg/kg/injection, schedule: Q01DX009 (ip), vehicle: saline with Tween-80 101 % of control | endpoint: median survival time, dose: 12.5 mg/kg/injection, schedule: Q01DX009 (ip), vehicle: saline with Tween-80 108 % of control | endpoint: median survival time, dose: 25.0 mg/kg/injection, schedule: Q01DX009 (ip), vehicle: saline with Tween-80 86 % of control

CC(=O)N1c2ccc(Br)cc2C(=O)C1C (stereo not given)
inactive: endpoint: mean survival time, dose: 100.0 mg/kg/injection, schedule: Q01DX001 (ip), vehicle: other 98 % of control | endpoint: mean survival time, dose: 200.0 mg/kg/injection, schedule: Q01DX001 (ip), vehicle: other 104 % of control | endpoint: mean survival time, dose: 400.0 mg/kg/injection, schedule: Q01DX001 (ip), vehicle: other 95 % of control

ClC1=NC(Cl)(Cl)C(Cl)=C1Cl
inactive: endpoint: mean survival time, dose: 6.25 mg/kg/injection, schedule: Q04DX002 (ip), vehicle: saline 95 % of control | endpoint: mean survival time, dose: 12.5 mg/kg/injection, schedule: Q04DX002 (ip), vehicle: saline 95 % of control | endpoint: mean survival time, dose: 25.0 mg/kg/injection, schedule: Q04DX002 (ip), vehicle: saline 98 % of control

CC(C)Cc1ccc(OC(=O)Nc2ccc(Cl)cc2)cc1
inactive: endpoint: mean survival time, dose: 25.0 mg/kg/injection, schedule: Q01DX009 (ip), vehicle: saline with Tween-80 106 % of control | endpoint: mean survival time, dose: 50.0 mg/kg/injection, schedule: Q01DX009 (ip), vehicle: saline with Tween-80 94 % of control | [1] 95 % of control | [3] 86 % of control

CCCCCNC(=O)Nc1cccc(Cl)c1C
inactive: [1] 94 % of control | [3] 88 % of control | [2] 92 % of control | [4] 92 % of control | [5] 92 % of control

CN(CCCN(C)N=Nc1ccccc1C(=O)O)N=Nc1ccccc1C(=O)O
inactive: endpoint: mean survival time, dose: 100.0 mg/kg/injection, schedule: Q04DX003 (ip), vehicle: Klucel (hydroxypropylcellulose) (HPC) 102 % of control | endpoint: mean survival time, dose: 200.0 mg/kg/injection, schedule: Q04DX003 (ip), vehicle: Klucel (hydroxypropylcellulose) (HPC) 100 % of control | endpoint: mean survival time, dose: 400.0 mg/kg/injection, schedule: Q04DX003 (ip), vehicle: Klucel (hydroxypropylcellulose) (HPC) 98 % of control
